Measured values: patent publication US10670605B2, “Cysteine reactive probes and uses thereof” (The Scripps Research Institute, priority 2015, dated 2020)

Key:
Test in all cases: Competitive isoTOP-ABPP in situ (fragment-treated cells)
Format in all cases: cell-based
[1] = biological target: T1, cysteines in MDA-MB-231 and Ramos cells (Homo sapiens, UniProt P21980)
T1 sequence (P21980 1-687): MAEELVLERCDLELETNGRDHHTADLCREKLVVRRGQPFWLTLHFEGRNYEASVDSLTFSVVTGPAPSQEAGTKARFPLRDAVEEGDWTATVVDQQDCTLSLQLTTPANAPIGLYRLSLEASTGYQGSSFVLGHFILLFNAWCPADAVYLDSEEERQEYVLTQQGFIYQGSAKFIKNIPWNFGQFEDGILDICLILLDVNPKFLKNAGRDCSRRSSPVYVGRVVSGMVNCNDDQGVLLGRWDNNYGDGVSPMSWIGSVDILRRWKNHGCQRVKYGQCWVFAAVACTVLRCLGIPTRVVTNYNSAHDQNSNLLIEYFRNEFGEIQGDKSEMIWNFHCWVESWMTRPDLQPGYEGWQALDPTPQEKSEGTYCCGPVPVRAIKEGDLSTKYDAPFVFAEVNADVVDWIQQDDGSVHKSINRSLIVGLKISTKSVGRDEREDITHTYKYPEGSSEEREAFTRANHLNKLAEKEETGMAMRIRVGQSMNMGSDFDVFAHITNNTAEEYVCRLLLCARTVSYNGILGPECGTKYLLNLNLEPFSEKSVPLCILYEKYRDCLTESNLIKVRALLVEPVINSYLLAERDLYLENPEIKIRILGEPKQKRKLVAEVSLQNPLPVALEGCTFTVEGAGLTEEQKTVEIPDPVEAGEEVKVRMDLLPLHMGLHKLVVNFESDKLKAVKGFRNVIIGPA

[2] = biological target: T2, cysteines in MDA-MB-231 and Ramos cells (Homo sapiens, UniProt Q9NQW6)
T2 sequence (Q9NQW6 1-1124): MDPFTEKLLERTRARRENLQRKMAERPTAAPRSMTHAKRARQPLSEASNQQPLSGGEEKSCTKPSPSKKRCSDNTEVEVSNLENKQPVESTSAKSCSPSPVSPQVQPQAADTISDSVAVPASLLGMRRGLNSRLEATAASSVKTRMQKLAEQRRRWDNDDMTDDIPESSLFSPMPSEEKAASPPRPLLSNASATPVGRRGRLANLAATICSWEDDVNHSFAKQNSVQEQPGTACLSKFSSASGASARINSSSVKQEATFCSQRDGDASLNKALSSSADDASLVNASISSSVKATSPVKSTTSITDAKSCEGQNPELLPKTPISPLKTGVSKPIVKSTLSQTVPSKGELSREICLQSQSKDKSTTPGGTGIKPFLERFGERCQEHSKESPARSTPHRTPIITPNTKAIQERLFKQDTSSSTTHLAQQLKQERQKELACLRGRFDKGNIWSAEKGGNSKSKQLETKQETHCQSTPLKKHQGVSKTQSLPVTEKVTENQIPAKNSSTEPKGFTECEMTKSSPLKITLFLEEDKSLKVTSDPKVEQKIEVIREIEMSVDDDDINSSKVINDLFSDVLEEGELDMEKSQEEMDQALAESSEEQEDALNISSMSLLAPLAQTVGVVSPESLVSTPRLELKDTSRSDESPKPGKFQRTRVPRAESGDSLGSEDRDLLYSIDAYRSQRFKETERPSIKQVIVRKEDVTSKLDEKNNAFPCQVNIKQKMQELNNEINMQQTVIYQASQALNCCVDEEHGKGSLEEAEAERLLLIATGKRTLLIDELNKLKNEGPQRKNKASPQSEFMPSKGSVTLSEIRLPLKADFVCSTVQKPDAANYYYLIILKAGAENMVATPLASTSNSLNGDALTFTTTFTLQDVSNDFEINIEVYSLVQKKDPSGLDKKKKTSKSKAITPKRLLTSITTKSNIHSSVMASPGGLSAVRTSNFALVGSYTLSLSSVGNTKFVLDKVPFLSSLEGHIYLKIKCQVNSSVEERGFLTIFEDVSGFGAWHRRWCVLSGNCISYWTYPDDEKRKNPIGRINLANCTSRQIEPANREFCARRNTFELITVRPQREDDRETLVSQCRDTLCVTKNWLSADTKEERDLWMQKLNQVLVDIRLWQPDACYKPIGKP

[3] = biological target: T3, cysteines in MDA-MB-231 and Ramos cells (Homo sapiens, UniProt Q96AB3)
T3 sequence (Q96AB3 1-205): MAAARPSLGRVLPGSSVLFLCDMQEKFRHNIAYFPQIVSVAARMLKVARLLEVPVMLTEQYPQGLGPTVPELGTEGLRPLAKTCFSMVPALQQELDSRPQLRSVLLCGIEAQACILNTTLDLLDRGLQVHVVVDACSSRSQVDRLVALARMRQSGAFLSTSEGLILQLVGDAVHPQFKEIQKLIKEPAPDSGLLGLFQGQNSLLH

[4] = biological target: T4, cysteines in MDA-MB-231 and Ramos cells (Homo sapiens, UniProt O95229)
T4 sequence (O95229 1-277): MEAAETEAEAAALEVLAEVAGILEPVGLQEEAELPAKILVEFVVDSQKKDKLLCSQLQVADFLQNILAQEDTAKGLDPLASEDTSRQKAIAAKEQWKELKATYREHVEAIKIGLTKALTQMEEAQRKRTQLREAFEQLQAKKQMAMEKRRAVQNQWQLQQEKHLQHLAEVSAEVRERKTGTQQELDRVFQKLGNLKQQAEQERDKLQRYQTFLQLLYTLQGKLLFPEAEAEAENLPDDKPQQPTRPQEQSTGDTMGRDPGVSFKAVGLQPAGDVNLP

[5] = biological target: T5, cysteines in MDA-MB-231 and Ramos cells (Homo sapiens, UniProt Q13418)
T5 sequence (Q13418 1-452): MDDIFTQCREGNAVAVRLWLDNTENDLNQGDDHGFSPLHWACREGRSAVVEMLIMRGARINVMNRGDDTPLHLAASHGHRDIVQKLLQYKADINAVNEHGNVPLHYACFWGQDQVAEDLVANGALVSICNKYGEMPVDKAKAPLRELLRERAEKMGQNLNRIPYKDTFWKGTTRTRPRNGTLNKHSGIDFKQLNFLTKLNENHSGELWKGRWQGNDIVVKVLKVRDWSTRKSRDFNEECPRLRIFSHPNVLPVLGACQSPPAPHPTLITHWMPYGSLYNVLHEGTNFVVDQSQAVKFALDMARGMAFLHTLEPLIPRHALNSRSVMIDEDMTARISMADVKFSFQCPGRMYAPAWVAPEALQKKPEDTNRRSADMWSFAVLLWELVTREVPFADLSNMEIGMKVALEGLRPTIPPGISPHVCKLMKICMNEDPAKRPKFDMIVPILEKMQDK

[6] = biological target: cysteines in MDA-MB-231 and Ramos cells (Homo sapiens, UniProt Q93009)
Sequence of cysteines in MDA-MB-231 and Ramos cells (Homo sapiens, UniProt Q93009) (Q93009 whole entry): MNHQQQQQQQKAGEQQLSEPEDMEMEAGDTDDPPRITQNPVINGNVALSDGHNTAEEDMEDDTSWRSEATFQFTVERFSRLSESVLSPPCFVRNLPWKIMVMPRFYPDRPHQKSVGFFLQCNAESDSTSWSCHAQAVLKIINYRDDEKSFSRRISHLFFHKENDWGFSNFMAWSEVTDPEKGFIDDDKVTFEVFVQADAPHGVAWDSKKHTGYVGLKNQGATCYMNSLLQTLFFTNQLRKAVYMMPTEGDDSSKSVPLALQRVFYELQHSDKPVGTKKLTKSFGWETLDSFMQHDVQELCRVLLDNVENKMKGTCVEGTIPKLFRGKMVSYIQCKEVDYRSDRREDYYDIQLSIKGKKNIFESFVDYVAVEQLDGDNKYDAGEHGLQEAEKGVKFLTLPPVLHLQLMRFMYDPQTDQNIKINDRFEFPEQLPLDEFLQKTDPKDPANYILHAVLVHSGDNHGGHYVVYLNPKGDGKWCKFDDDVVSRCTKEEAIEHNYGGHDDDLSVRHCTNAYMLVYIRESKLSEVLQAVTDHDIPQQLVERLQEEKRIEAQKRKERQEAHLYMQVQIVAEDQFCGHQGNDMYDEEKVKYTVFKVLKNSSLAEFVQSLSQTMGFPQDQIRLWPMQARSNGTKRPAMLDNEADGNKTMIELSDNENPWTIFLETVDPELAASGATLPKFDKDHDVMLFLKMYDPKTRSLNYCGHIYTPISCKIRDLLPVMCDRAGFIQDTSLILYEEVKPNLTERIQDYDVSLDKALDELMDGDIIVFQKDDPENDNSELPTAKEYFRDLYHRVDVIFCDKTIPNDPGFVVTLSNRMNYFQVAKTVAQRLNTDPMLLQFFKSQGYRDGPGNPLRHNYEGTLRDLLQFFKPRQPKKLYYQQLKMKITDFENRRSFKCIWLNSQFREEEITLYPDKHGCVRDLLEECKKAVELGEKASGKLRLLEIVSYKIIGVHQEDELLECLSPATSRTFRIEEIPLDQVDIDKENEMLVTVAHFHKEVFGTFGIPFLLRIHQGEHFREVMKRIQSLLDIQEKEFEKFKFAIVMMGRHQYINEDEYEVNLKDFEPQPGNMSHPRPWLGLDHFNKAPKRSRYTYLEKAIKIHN

**Q.** With `Cn1cc(S(=O)(=O)N2CCOCC2)cc1C(=O)NC(=O)CCl` [compound 11] as the compound, how does the “isoTOP-ABPP ratio P21980_C277” value ([1]; 100 μM in situ 231) read?
**A.** The value was 0.6.

**Q.** And the “isoTOP-ABPP ratio Q9NQW6_C712” value ([2]; 100 μM in situ 231)?
**A.** Its value is 0.9.

**Q.** And the “isoTOP-ABPP ratio Q96AB3_C114” value ([3]; 100 μM in situ 231)?
**A.** The value was 0.9.

**Q.** And the “isoTOP-ABPP ratio O95229_C54” value ([4]; 100 μM in situ 231)?
**A.** Its value is 1.2.

**Q.** And the “isoTOP-ABPP ratio Q13418_C346” value ([5]; 100 μM in situ 231)?
**A.** The value was 0.6.

**Q.** And the “isoTOP-ABPP ratio Q93009_C223” value ([6]; 100 μM in situ 231)?
**A.** Its value is 1.0.

**Q.** How did the “isoTOP-ABPP ratio P21980_C277” value ([1]; 200 μM, insitu, 231) turn out when `C=CC(=O)Nc1cc(F)c(N2CCN(C(=O)OC(C)(C)C)CC2)c(F)c1` [compound 38] was run?
**A.** Its value is 1.4.

**Q.** What about the “isoTOP-ABPP ratio Q9NQW6_C712” value ([2]; 200 μM, insitu, 231) of the same compound?
**A.** The value was 1.5.

**Q.** And the “isoTOP-ABPP ratio Q96AB3_C114” value ([3]; 200 μM, insitu, 231)?
**A.** Its value is 1.2.

**Q.** And the “isoTOP-ABPP ratio Q13418_C346” value ([5]; 200 μM, insitu, 231)?
**A.** The value was 1.0.

**Q.** What about the “isoTOP-ABPP ratio Q93009_C223” value ([6]; 200 μM, insitu, 231) of the same compound?
**A.** Its value is 0,8.

**Q.** `CC1CCc2ccccc2N1C(=O)CCl` (stereo not shown) [compound 45] was tested. Which “isoTOP-ABPP ratio P21980_C277” value ([1]; 200 μM, insitu, 231) did it give?
**A.** The value was 1.1.

**Q.** And the “isoTOP-ABPP ratio Q9NQW6_C712” value ([2]; 200 μM, insitu, 231)?
**A.** Its value is 5.9.

**Q.** What about the “isoTOP-ABPP ratio Q96AB3_C114” value ([3]; 200 μM, insitu, 231) of the same compound?
**A.** The value was 3.1.

**Q.** And the “isoTOP-ABPP ratio Q93009_C223” value ([6]; 200 μM, insitu, 231)?
**A.** The value was 20.0.

**Q.** Which “isoTOP-ABPP reactivity P21980_C277 TGM2” value ([1]; 200 μM, insitu, 231) does the source give for `COc1ccc2c(c1)CCCN2C(=O)CCl` [compound 2] here?
**A.** The value was 0.7.

**Q.** And the “isoTOP-ABPP reactivity Q96AB3_C114 ISOC2” value ([3]; 200 μM, insitu, 231)?
**A.** Its value is 1.6.

**Q.** What about the “isoTOP-ABPP reactivity O95229_C54 ZWINT” value ([4]; 200 μM, insitu, 231) of the same compound?
**A.** Its value is 3.4.

**Q.** What about the “isoTOP-ABPP reactivity Q13418_C346 ILK” value ([5]; 200 μM, insitu, 231) of the same compound?
**A.** The value was 1.4.

**Q.** For `COc1cc2c(cc1OC)CN(C(=O)CCl)CC2` [compound 8], which “isoTOP-ABPP reactivity P21980_C277 TGM2” value ([1]; 200 μM, insitu, 231) is on record?
**A.** The value was 0.7.

**Q.** What about the “isoTOP-ABPP reactivity Q9NQW6_C712 ANLN” value ([2]; 200 μM, insitu, 231) of the same compound?
**A.** The value was 14.1.

**Q.** And the “isoTOP-ABPP reactivity Q96AB3_C114 ISOC2” value ([3]; 200 μM, insitu, 231)?
**A.** The value was 4.7.

**Q.** And the “isoTOP-ABPP reactivity O95229_C54 ZWINT” value ([4]; 200 μM, insitu, 231)?
**A.** Its value is 3.1.

**Q.** And the “isoTOP-ABPP reactivity Q93009_C223 USP7” value ([6]; 200 μM, insitu, 231)?
**A.** Its value is 20.0.

**Q.** Which “isoTOP-ABPP ratio P21980_C277” value ([1]; 200 μM, insitu, 231) does the source give for `CC(C)CCOCCNC(=O)CCl` [compound 27] here?
**A.** Its value is 0.6.

**Q.** And the “isoTOP-ABPP ratio Q9NQW6_C712” value ([2]; 200 μM, insitu, 231)?
**A.** The value was 1.0.

**Q.** What about the “isoTOP-ABPP ratio Q96AB3_C114” value ([3]; 200 μM, insitu, 231) of the same compound?
**A.** Its value is 1.0.

**Q.** What about the “isoTOP-ABPP ratio O95229_C54” value ([4]; 200 μM, insitu, 231) of the same compound?
**A.** Its value is 0.5.

**Q.** What about the “isoTOP-ABPP ratio Q13418_C346” value ([5]; 200 μM, insitu, 231) of the same compound?
**A.** The value was 0.6.

**Q.** And the “isoTOP-ABPP ratio Q93009_C223” value ([6]; 200 μM, insitu, 231)?
**A.** Its value is 1.1.

**Q.** With `O=C(CCl)N1CCN(S(=O)(=O)c2ccccc2F)CC1` [compound 10] as the compound, how does the “isoTOP-ABPP ratio P21980_C277” value ([1]; 200 μM, insitu, 231) read?
**A.** Its value is 0.6.

**Q.** And the “isoTOP-ABPP ratio Q9NQW6_C712” value ([2]; 200 μM, insitu, 231)?
**A.** The value was 11.2.

**Q.** And the “isoTOP-ABPP ratio Q96AB3_C114” value ([3]; 200 μM, insitu, 231)?
**A.** Its value is 20.0.

**Q.** What about the “isoTOP-ABPP ratio O95229_C54” value ([4]; 200 μM, insitu, 231) of the same compound?
**A.** Its value is 2.3.

**Q.** What about the “isoTOP-ABPP ratio Q13418_C346” value ([5]; 200 μM, insitu, 231) of the same compound?
**A.** The value was 1.1.

**Q.** And the “isoTOP-ABPP ratio Q13418_C346” value ([5]; 200 μM, insitu, ramos)?
**A.** Its value is 8.3.

**Q.** What about the “isoTOP-ABPP ratio Q93009_C223” value ([6]; 200 μM, insitu, 231) of the same compound?
**A.** Its value is 2.5.

**Q.** What does the source list for `O=C(CCl)N1CCN(CC(=O)N2CCOCC2)CC1` [compound 29]?
**A.** isoTOP-ABPP ratio Q96AB3_C114 ([3]; 200 μM, insitu, ramos): 1.1; isoTOP-ABPP ratio O95229_C54 ([4]; 200 μM, insitu, ramos): 1.2; isoTOP-ABPP ratio Q93009_C223 ([6]; 200 μM, insitu, ramos): 1.0

**Q.** With `C=CC(=O)N(Cc1cccnc1)c1cc(C(F)(F)F)cc(C(F)(F)F)c1` [compound 31] as the compound, how does the “isoTOP-ABPP ratio Q9NQW6_C712” value ([2]; 200 μM, insitu, 231) read?
**A.** The value was 0.7.

**Q.** And the “isoTOP-ABPP ratio Q96AB3_C114” value ([3]; 200 μM, insitu, 231)?
**A.** The value was 0.7.

**Q.** What about the “isoTOP-ABPP ratio Q13418_C346” value ([5]; 200 μM, insitu, 231) of the same compound?
**A.** The value was 0.6.
